Reference: patent publication US20240032533A1 (priority 2020, published 2024)
Where two headings read alike, the source gives them in different places.

Legend:
Zymoseptoria tritici = experiment: microbe, parasite or virus in culture; type: cell-based; conditions: for inhibition at 0.05 ppm / inhibition at 0.1 ppm / inhibition at 0.5 ppm / inhibition at 1 ppm: Zymoseptoria tritici
Venturia inaequalis = experiment: microbe, parasite or virus in culture; type: cell-based
Phytophthora infestans = experiment: microbe, parasite or virus in culture; type: cell-based; conditions: for inhibition at 0.05 ppm: read-out: Activity (%) 0.05 ppm; for inhibition at 0.1 ppm: read-out: Activity (%) 0.1 ppm; for inhibition at 0.5 ppm: read-out: Activity (%) 0.5 ppm; for inhibition at 1 ppm: read-out: Activity (%) 1 ppm; for inhibition at 5 ppm: read-out: Activity (%) 5 ppm; for inhibition at 10 ppm: read-out: Activity (%) 10 ppm; for inhibition at 50 ppm: read-out: Activity (%) 50 ppm
[1] = Water solubility as a function of pH; type: physicochemical; conditions: increases at pH values below 7.0 and above 7.0
[2] = test system: Phytophthora infestans strain Pi96; type: in vivo; conditions: for Disease Severity Index (%) 3 dpi / Disease Severity Index (%) 7 dpi / Disease Severity Index (%) 5 dpi / Disease Severity Index (%) 10 dpi: preventive 24 h
[3] = test system: Plasmopara viticola strain PvS; experiment: Grapevine downy mildew, preventive treatment of detached grapevine leaves / leaf discs; type: in vivo; conditions: 2267 ppm, preventive 24 h, 7 dpi

Molecule `N#Cc1c(Cl)c(Cl)c(Cl)c(C#N)c1Cl` [Chlorothalonil] has an inhibition at 0.05 ppm (Zymoseptoria tritici; 0.05 ppm) of 4.3%, an inhibition at 0.1 ppm (Zymoseptoria tritici) of 10% and an inhibition at 0.5 ppm (Zymoseptoria tritici; 0.5 ppm) of 17.9%. It also gave an inhibition at 1 ppm (Zymoseptoria tritici; 1 ppm) of 54.7%, an inhibition at 0.1 ppm (Venturia inaequalis) of 34.3% and an inhibition at 0.5 ppm (Venturia inaequalis) of 88.8%. The inhibition at 1 ppm (Venturia inaequalis) was 97.4%, the inhibition at 0.05 ppm (Phytophthora infestans) was -11.8% and the inhibition at 0.1 ppm (Phytophthora infestans) was -5.8%. The inhibition at 0.5 ppm (Phytophthora infestans) was -2%, the inhibition at 1 ppm (Phytophthora infestans) was 15.3% and the inhibition at 5 ppm (Phytophthora infestans) was 99.2%. It also gave an inhibition at 10 ppm (Phytophthora infestans) of 98.5% and an inhibition at 50 ppm (Phytophthora infestans) of 100%.
For `CCCCCCCCCCCCCCCCCC[S+](C)C.[Cl-]` [octadecyl dimethyl sulfonium chloride], the “water solubility, pH dependency” value [1] was “minimum around pH 7.0”.
In the case of `CCCCCCCCCCCCCCCCCC[S+](C)C.[Cl-]` [ODS-Cl, octadecyl dimethyl sulfonium chloride], the “Activity (%) 0.1 ppm” value (Zymoseptoria tritici) is reported as 8.8%, the inhibition at 0.05 ppm (Zymoseptoria tritici; 0.05 ppm) is reported as 6.5% and the inhibition at 0.5 ppm (Zymoseptoria tritici; 0.5 ppm) is reported as 11.5%. For the same molecule, the inhibition at 1 ppm (Zymoseptoria tritici; 1 ppm) was 91%, the inhibition at 0.1 ppm (Venturia inaequalis) was 14.3% and the inhibition at 0.5 ppm (Venturia inaequalis) was 97.4%. For the same molecule, the inhibition at 1 ppm (Venturia inaequalis) was 97.2%, the inhibition at 0.05 ppm (Phytophthora infestans) was 6.2% and the inhibition at 0.1 ppm (Phytophthora infestans) was 12.6%. It also gave an inhibition at 0.5 ppm (Phytophthora infestans) of 12.5%, an inhibition at 1 ppm (Phytophthora infestans) of 12.3% and an inhibition at 5 ppm (Phytophthora infestans) of 14.1%. The inhibition at 10 ppm (Phytophthora infestans) was 29.3%, the inhibition at 50 ppm (Phytophthora infestans) was 98.4% and the “Disease Severity Index (%) 3 dpi” value ([2]; 50 ppm) was 8.7%. For the same molecule, the “Disease Severity Index (%) 7 dpi” value ([2]; 50 ppm) was 40.0%, the “Disease Severity Index (%) 3 dpi” value ([2]; 100 ppm) was 5.5% and the “Disease Severity Index (%) 3 dpi” value ([2]; 500 ppm) was 0.0%. The “Disease Severity Index (%) 5 dpi” value ([2]; 500 ppm) was 0.0%, the “Disease Severity Index (%) 7 dpi” value ([2]; 500 ppm) was 0.0% and the “Disease Severity Index (%) 10 dpi” value ([2]; 500 ppm) was 0.0%. The “control of the disease (late blight)” value ([2]; 1000 ppm) was “full control”, the “Disease Severity Index (%) 3 dpi” value ([2]; 1000 ppm) was 0.0% and the “Disease Severity Index (%) 5 dpi” value ([2]; 1000 ppm) was 0.0%. For the same molecule, the “Disease Severity Index (%) 7 dpi” value ([2]; 1000 ppm) was 0.0% and the “Disease Severity Index (%) 10 dpi” value ([2]; 1000 ppm) was 0.0%.
For `CCCCCCCCCCCCCCCCCC[S+](C)C.[I-]` [1-5, octadecyl dimethyl sulfonium iodide], the “Activity (%) 0.05 ppm” value (Zymoseptoria tritici; 0.05 ppm) was 6.4%, the “Activity (%) 0.1 ppm” value (Zymoseptoria tritici) was 2.7% and the “Activity (%) 0.5 ppm” value (Zymoseptoria tritici; 0.5 ppm) was 11.2%. For the same molecule, the “Activity (%) 1 ppm” value (Zymoseptoria tritici; 1 ppm) was 92.7%.
Molecule `CCCCCCCCCCCCNC(=N)N` [Dodine] has an inhibition at 0.05 ppm (Zymoseptoria tritici; 0.05 ppm) of 5.2%, an inhibition at 0.1 ppm (Zymoseptoria tritici) of 21.4% and an inhibition at 0.5 ppm (Zymoseptoria tritici; 0.5 ppm) of 101%. For the same molecule, the inhibition at 1 ppm (Zymoseptoria tritici; 1 ppm) was 98.1%, the “control towards Downy Mildew” value [3] was “full control” and the inhibition at 0.1 ppm (Venturia inaequalis) was 83.2%. For the same molecule, the inhibition at 0.5 ppm (Venturia inaequalis) was 98.2%, the inhibition at 1 ppm (Venturia inaequalis) was 97.3% and the inhibition at 0.05 ppm (Phytophthora infestans) was 12.5%. It also gave an inhibition at 0.1 ppm (Phytophthora infestans) of 12%, an inhibition at 0.5 ppm (Phytophthora infestans) of 59.4% and an inhibition at 1 ppm (Phytophthora infestans) of 81.9%. For the same molecule, the inhibition at 5 ppm (Phytophthora infestans) was 93.8%, the inhibition at 10 ppm (Phytophthora infestans) was 95.5% and the inhibition at 50 ppm (Phytophthora infestans) was 98.9%.
